Patent publication US20250092039A1, “GLUTARIMIDE-CONTAINING PAN-KRAS-MUTANT DEGRADER COMPOUNDS AND USES THEREOF” (Tiger Biotherapeutics Inc., priority 2022, published 2025)

Assays:
[1] = target: KRAS-G12V/RAF1 (Homo sapiens (Human), UniProt P01116, G12V); experiment: KRAS/RAF1 binding inhibition assay (AlphaScreen)
How it was run: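 Binding of GppNHp-loaded KRAS G12V to the RAF1 RBD was measured by AlphaScreen with test compound present in 2% DMSO (final), 60 min incubation at 4° C. Signals were converted to % inhibition versus DMSO, and IC50 was obtained by variable-slope nonlinear regression.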

[2] = target: KRAS G12V (Homo sapiens (Human), UniProt P01116, G12V); experiment: KRAS G12V degradation in SW620 cells (Western blot, DC50); format: cell-based; details: 24 hours
Sequence of KRAS G12V (P01116-2 other isoform, or with tags, fused parts or gaps G12V): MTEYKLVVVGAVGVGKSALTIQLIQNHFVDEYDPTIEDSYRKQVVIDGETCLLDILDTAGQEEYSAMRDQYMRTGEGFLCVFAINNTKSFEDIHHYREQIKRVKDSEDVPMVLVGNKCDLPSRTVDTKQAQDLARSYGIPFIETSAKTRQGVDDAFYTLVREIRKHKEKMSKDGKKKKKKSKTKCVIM
How it was run: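 SW620 cells (homozygous KRAS G12V) were treated with compound for 24 hours at 37° C. KRAS in lysates was measured by Western blot with fluorescent secondary antibodies and expressed relative to DMSO vehicle (100%). DC50 came from a four-parameter variable-slope dose-response fit.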

[3] = system: SW620 cells; experiment: 3D cell growth inhibition of SW620 cells carrying endogenous KRAS G12V mutation (CellTiter-Glo 3D, GI50); format: cell-based; details: Homo sapiens, SW-620, 144 h; SW620 cells, 6 days; read-out: SW620 3D cell growth GI50
How it was run: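 SW620 cells (endogenous KRAS G12V) grown in 3D were dosed next day with compound from DMSO stocks at various concentrations, then incubated 6 days at 37° C.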

Sequence of KRAS-G12V/RAF1 (P01116-2 other isoform, or with tags, fused parts or gaps G12V): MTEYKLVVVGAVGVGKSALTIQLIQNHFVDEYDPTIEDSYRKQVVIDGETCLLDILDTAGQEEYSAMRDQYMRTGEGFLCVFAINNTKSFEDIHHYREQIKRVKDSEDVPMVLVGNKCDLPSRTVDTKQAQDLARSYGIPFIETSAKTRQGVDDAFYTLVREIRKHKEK

IC50 [1] | DC50 [2] | GI50 [3] | SMILES
< 20 nM | 1 to 10 nM | > 100 nM | CCc1c(F)ccc2cc(O)cc(-c3ncc4c(N5CCC[C@@](C)(O)C5)nc(OCC5(CN6CC7(CCN(C8CCN(c9ccc%10c(c9)CN(C9CCC(=O)NC9=O)C%10=O)CC8)CC7)C6)CC5)nc4c3F)c12 (stereo partly drawn) [Compound 166, 3-(5-(4-(2-((1-(((7-(8-ethyl-7-fluoro-3-hydroxynaphthalen-1-yl)-8-fluoro-4-((R)-3-hydroxy-3-methylpiperidin-1-yl)pyrido[4,3-d]pyrimidin-2-yl)oxy)methyl)cyclopropyl)methyl)-2,7-diazaspiro[3.5]nonan-7-yl)piperidin-1-yl)-1-oxoisoindolin-2-yl)piperidine-2,6-dione]
20 to 200 nM | 1 to 10 nM | > 100 nM | CCc1cccc2cc(O)cc(-c3ncc4c(N5CCC[C@@](C)(O)C5)nc(OCC5(CN6CC(N7CC(N8CCN(c9ccc%10c(c9)CN([C@H]9CCC(=O)NC9=O)C%10=O)CC8)C7)C6)CC5)nc4c3F)c12 [Compound 168, (S)-3-(5-(4-(1′-((1-(((7-(8-ethyl-3-hydroxynaphthalen-1-yl)-8-fluoro-4-((R)-3-hydroxy-3-methylpiperidin-1-yl)pyrido[4,3-d]pyrimidin-2-yl)oxy)methyl)cyclopropyl)methyl)-[1,3′-biazetidin]-3-yl)piperazin-1-yl)-1-oxoisoindolin-2-yl)piperidine-2,6-dione]
20 to 200 nM | > 100 nM | > 100 nM | C[C@@]1(O)CCCN(c2nc(OCC3(CN4CC(N5CC(N6CCN(c7ccc8c(c7)CN([C@H]7CCC(=O)NC7=O)C8=O)CC6)C5)C4)CC3)nc3c(F)c(-c4cc(O)cc5ccc(F)c(F)c45)ncc23)C1 [Compound 169, (S)-3-(5-(4-(1′-((1-(((7-(7,8-difluoro-3-hydroxynaphthalen-1-yl)-8-fluoro-4-((R)-3-hydroxy-3-methylpiperidin-1-yl)pyrido[4,3-d]pyrimidin-2-yl)oxy)methyl)cyclopropyl)methyl)-[1,3′-biazetidin]-3-yl)piperazin-1-yl)-1-oxoisoindolin-2-yl)piperidine-2,6-dione]
20 to 200 nM | 1 to 10 nM | < 10 nM | C[C@@]1(O)CCCN(c2nc(OCC3(CN4CCC5(CC4)CC(N4CCN(c6ccc7c(c6)CN([C@H]6CCC(=O)NC6=O)C7=O)CC4)C5)CC3)nc3c(F)c(-c4cc(O)cc5ccc(F)c(F)c45)ncc23)C1 [Compound 170, (S)-3-(5-(4-(7-((1-(((7-(7,8-difluoro-3-hydroxynaphthalen-1-yl)-8-fluoro-4-((R)-3-hydroxy-3-methylpiperidin-1-yl)pyrido[4,3-d]pyrimidin-2-yl)oxy)methyl)cyclopropyl)methyl)-7-azaspiro[3.5]nonan-2-yl)piperazin-1-yl)-1-oxoisoindolin-2-yl)piperidine-2,6-dione]
20 to 200 nM | > 100 nM | 10 to 100 nM | CCc1c(F)ccc2cc(O)cc(-c3ncc4c(N5CCC[C@@](C)(O)C5)nc(OCC5(CN6CCN(C7CCC8(CC7)CCN(c7ccc9c(c7)CN(C7CCC(=O)NC7=O)C9=O)CC8)CC6)CC5)nc4c3F)c12 (stereo partly drawn) [Compound 171, 3-(5-(9-(4-((1-(((7-(8-ethyl-7-fluoro-3-hydroxynaphthalen-1-yl)-8-fluoro-4-((R)-3-hydroxy-3-methylpiperidin-1-yl)pyrido[4,3-d]pyrimidin-2-yl)oxy)methyl)cyclopropyl)methyl)piperazin-1-yl)-3-azaspiro[5.5]undecan-3-yl)-1-oxoisoindolin-2-yl)piperidine-2,6-dione]
< 20 nM | 1 to 10 nM | < 10 nM | CCc1c(F)ccc2cc(O)cc(-c3ncc4c(N5CCC[C@@](C)(O)C5)nc(OCC5(CN6CC7(CCN(C8CN(c9ccc%10c(c9)CN(C9CCC(=O)NC9=O)C%10=O)C8)CC7)C6)CC5)nc4c3F)c12 (stereo partly drawn) [Compound 172, 3-(5-(3-(2-((1-(((7-(8-ethyl-7-fluoro-3-hydroxynaphthalen-1-yl)-8-fluoro-4-((R)-3-hydroxy-3-methylpiperidin-1-yl)pyrido[4,3-d]pyrimidin-2-yl)oxy)methyl)cyclopropyl)methyl)-2,7-diazaspiro[3.5]nonan-7-yl)azetidin-1-yl)-1-oxoisoindolin-2-yl)piperidine-2,6-dione]
20 to 200 nM | < 1 nM | < 10 nM | CCc1cccc2cc(O)cc(-c3ncc4c(N5CCC[C@@](C)(O)C5)nc(OCC5(CN6CCC7(CC6)CC(F)(CN6CCN(c8ccc9c(c8)CN([C@H]8CCC(=O)NC8=O)C9=O)CC6)C7)CC5)nc4c3F)c12 [Compound 173, (S)-3-(5-(4-((7-((1-(((7-(8-ethyl-3-hydroxynaphthalen-1-yl)-8-fluoro-4-((R)-3-hydroxy-3-methylpiperidin-1-yl)pyrido[4,3-d]pyrimidin-2-yl)oxy)methyl)cyclopropyl)methyl)-2-fluoro-7-azaspiro[3.5]nonan-2-yl)methyl)piperazin-1-yl)-1-oxoisoindolin-2-yl)piperidine-2.6-dione]
20 to 200 nM | < 1 nM | < 10 nM | C[C@@]1(O)CCCN(c2nc(OCC3(CN4CCC5(CC4)CC(F)(CN4CCN(c6ccc7c(c6)CN([C@H]6CCC(=O)NC6=O)C7=O)CC4)C5)CC3)nc3c(F)c(-c4cc(O)cc5ccc(F)c(F)c45)ncc23)C1 [Compound 174, (S)-3-(5-(4-((7-((1-(((7-(7,8-difluoro-3-hydroxynaphthalen-1-yl)-8-fluoro-4-((R)-3-hydroxy-3-methylpiperidin-1-yl)pyrido[4,3-d]pyrimidin-2-yl)oxy)methyl)cyclopropyl)methyl)-2-fluoro-7-azaspiro[3.5]nonan-2-yl)methyl)piperazin-1-yl)-1-oxoisoindolin-2-yl)piperidine-2,6-dione]
< 20 nM | < 1 nM | < 10 nM | CCc1c(F)ccc2cc(O)cc(-c3ncc4c(N5CCOC[C@@](C)(O)C5)nc(OCC5(CN6CCC7(CC6)CC(F)(CN6CCN(c8ccc9c(c8)CN([C@H]8CCC(=O)NC8=O)C9=O)CC6)C7)CC5)nc4c3F)c12 [Compound 175, (S)-3-(5-(4-((7-((1-(((7-(8-ethyl-7-fluoro-3-hydroxynaphthalen-1-yl)-8-fluoro-4-((S)-6-hydroxy-6-methyl-1,4-oxazepan-4-yl)pyrido[4,3-d]pyrimidin-2-yl)oxy)methyl)cyclopropyl)methyl)-2-fluoro-7-azaspiro[3.5]nonan-2-yl)methyl)piperazin-1-yl)-1-oxoisoindolin-2-yl)piperidine-2,6-dione]
20 to 200 nM | < 1 nM | < 10 nM | CCc1c(F)ccc2cc(O)cc(-c3ncc4c(N5CCC[C@@](C)(O)C5)nc(OCC5(CN6CCC7(CC6)CC(OC6CCN(c8ccc9c(c8)CN(C8CCC(=O)NC8=O)C9=O)CC6)C7)CC5)nc4c3F)c12 (stereo partly drawn) [Compound 176, 3-(5-(4-((7-((1-(((7-(8-ethyl-7-fluoro-3-hydroxynaphthalen-1-yl)-8-fluoro-4-((R)-3-hydroxy-3-methylpiperidin-1-yl)pyrido[4,3-d]pyrimidin-2-yl)oxy)methyl)cyclopropyl)methyl)-7-azaspiro[3.5]nonan-2-yl)oxy)piperidin-1-yl)-1-oxoisoindolin-2-yl)piperidine-2,6-dione]
> 200 nM | > 100 nM | 10 to 100 nM | C[C@@]1(O)CCCN(c2nc(OCC3(CN4CC5(CCC(F)(CN6CCN(c7ccc8c(c7)CN([C@H]7CCC(=O)NC7=O)C8=O)CC6)CC5)C4)CC3)nc3c(F)c(-c4cc(O)cc5ccc(F)c(F)c45)ncc23)C1 [Compound 177, (S)-3-(5-(4-((2-((1-(((7-(7,8-difluoro-3-hydroxynaphthalen-1-yl)-8-fluoro-4-((R)-3-hydroxy-3-methylpiperidin-1-yl)pyrido[4,3-d]pyrimidin-2-yl)oxy)methyl)cyclopropyl)methyl)-7-fluoro-2-azaspiro[3.5]nonan-7-yl)methyl)piperazin-1-yl)-1-oxoisoindolin-2-yl)piperidine-2,6-dione]
20 to 200 nM | < 1 nM | < 10 nM | CCc1c(F)ccc2cc(O)cc(-c3ncc4c(N5CCC[C@@](C)(O)C5)nc(OCC5(CN6CC7(CCC(F)(CN8CCN(c9ccc%10c(c9)CN([C@H]9CCC(=O)NC9=O)C%10=O)CC8)CC7)C6)CC5)nc4c3F)c12 [Compound 178, (S)-3-(5-(4-((2-((1-(((7-(8-ethyl-7-fluoro-3-hydroxynaphthalen-1-yl)-8-fluoro-4-((R)-3-hydroxy-3-methylpiperidin-1-yl)pyrido[4,3-d]pyrimidin-2-yl)oxy)methyl)cyclopropyl)methyl)-7-fluoro-2-azaspiro[3.5]nonan-7-yl)methyl)piperazin-1-yl)-1-oxoisoindolin-2-yl)piperidine-2,6-dione]
20 to 200 nM | > 100 nM | 10 to 100 nM | CCc1c(F)ccc2cc(O)cc(-c3ncc4c(N5CCC[C@@](C)(O)C5)nc(OCC5(CN6CCC7(CC6)CC(F)(CN6CCN(c8ccc(C(=O)N[C@H]9CCC(=O)NC9=O)c(F)c8)CC6)C7)CC5)nc4c3F)c12 [Compound 180, N-((S)-2,6-dioxopiperidin-3-yl)-4-(4-((7-((1-(((7-(8-ethyl-7-fluoro-3-hydroxynaphthalen-1-yl)-8-fluoro-4-((R)-3-hydroxy-3-methylpiperidin-1-yl)pyrido[4,3-d]pyrimidin-2-yl)oxy)methyl)cyclopropyl)methyl)-2-fluoro-7-azaspiro[3.5]nonan-2-yl)methyl)piperazin-1-yl)-2-fluorobenzamide]
